The values below come from ChEMBL document CHEMBL1201862, “PubChem BioAssay data set” (2004).

SMILES strings stand for the structures.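 Grown in 96-well plates, cells were treated for 48 hours with each compound at five concentrations. Insufficient inhibition: endpoint recorded as highest concentration tested. Abbreviation: GI50, concentration required for 50% inhibition of growth.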 Activity calls are given as the source filed them. No stated cut-off is given here; in the data, active = GI50 up to about 1.1 µM and inactive = higher.

Among the test systems are 786-0; CAKI-1; Hs-578T; M14; MCF7; MDA-N; RPMI-8226; SF-268; SF-295; SK-MEL-28; SK-OV-3; SN12C; SW-620; TK-10; U-251; UACC-257; UACC-62; CCRF-CEM; HL-60; MDA-MB-231.
Common to all, as to experiment: DTP human tumour cell line panel, 48 h

Turning to `N#CCCC1(CCC#N)CCCCCCCCC(CCC#N)(CCC#N)C(O)C1O` (stereo not given), the GI50 (commonly the concentration giving 50% growth inhibition) in the experiment with 786-0 was > 100 µM (inactive); in the experiment with CAKI-1, > 100 µM (inactive); in the experiment on Hs-578T, 52 µM (inactive); with M14, > 100 µM (inactive); in the experiment with MCF7 it was > 100 µM (inactive); in the experiment with MDA-N, > 100 µM (inactive). Besides, the concentration for 50% growth inhibition (GI50) was < 0.01 µM (active) in the experiment with RPMI-8226; 37.8 µM (inactive) in the experiment on SF-268; > 100 µM (inactive) in the experiment with SF-295; > 100 µM (inactive) with SK-MEL-28; > 100 µM (inactive) in the experiment on SK-OV-3; > 100 µM (inactive) in the experiment on SN12C. The GI50 is > 100 µM (inactive) in the experiment on SW-620; 74.8 µM (inactive) in the experiment on TK-10; 46.7 µM (inactive) in the experiment on U-251; > 100 µM (inactive) in the experiment on UACC-257; > 100 µM (inactive) in the experiment on UACC-62.

On to `COc1cc(S(=O)(=O)Nc2ccc(-c3csc(N4C(=O)C(Cl)C4c4cccc(Oc5ccccc5)c4)n3)cc2)ccc1Cl` (stereo not given), for which the GI50 with 786-0 is 13.7 µM (inactive); in the experiment with CAKI-1, 20.2 µM (inactive); with CCRF-CEM, 3.31 µM (inactive); with HL-60 it was 20.5 µM (inactive); in the experiment on Hs-578T, > 100 µM (inactive); in the experiment on M14 it was 22.9 µM (inactive). For the same compound, the GI50 was 37.7 µM (inactive) in the experiment with MCF7; 22.3 µM (inactive) in the experiment with MDA-N; 19.7 µM (inactive) with RPMI-8226; 15 µM (inactive) in the experiment on SF-268; > 100 µM (inactive) in the experiment with SF-295; 24.3 µM (inactive) in the experiment on SK-MEL-28. The GI50 with SK-OV-3 was > 100 µM (inactive); in the experiment on SN12C it was 15.5 µM (inactive); in the experiment with SW-620 it was 36.1 µM (inactive); in the experiment with UACC-257, 39.6 µM (inactive); in the experiment with UACC-62, 24.5 µM (inactive).

Turning to `COC(=O)c1ccc(-c2nc(C#N)c(N)o2)cc1`, the GI50 with 786-0 was 59.3 µM (inactive); in the experiment on CAKI-1, > 100 µM (inactive); in the experiment on CCRF-CEM it was > 100 µM (inactive); in the experiment with Hs-578T it was 32.2 µM (inactive); in the experiment on M14 it was > 100 µM (inactive); in the experiment with MCF7 it was > 100 µM (inactive). In addition, the GI50 with MDA-MB-231 was 27.1 µM (inactive); in the experiment on RPMI-8226, > 100 µM (inactive); with SF-268, 37.7 µM (inactive); in the experiment with SF-295, > 100 µM (inactive); in the experiment with SK-MEL-28, > 100 µM (inactive); in the experiment with SK-OV-3 it was > 100 µM (inactive). The GI50 with SN12C was > 100 µM (inactive); in the experiment on SW-620, > 100 µM (inactive); with TK-10 it was > 100 µM (inactive); with U-251, 31.6 µM (inactive); in the experiment on UACC-257 it was > 100 µM (inactive).

With `O=C1C(Cl)=C(Nc2ccc(S(=O)(=O)O)cc2)C(=O)c2ccccc21`, the GI50 in the experiment with 786-0 is 27.2 µM (inactive); in the experiment with CAKI-1, 39.5 µM (inactive); with CCRF-CEM it was 26.7 µM (inactive); with HL-60, 26.9 µM (inactive); with Hs-578T it was 24 µM (inactive); in the experiment with M14 it was 21.4 µM (inactive). The GI50 in the experiment on MCF7 was 20.9 µM (inactive); with MDA-MB-231, 60.7 µM (inactive); with RPMI-8226, 24.7 µM (inactive); in the experiment with SF-268, 39.3 µM (inactive); in the experiment with SF-295, 33.6 µM (inactive); in the experiment on SK-MEL-28 it was 32.1 µM (inactive). The GI50 was 22 µM (inactive) with SW-620; 22.1 µM (inactive) with TK-10; 36.8 µM (inactive) in the experiment with U-251; 40 µM (inactive) with UACC-257; 64.4 µM (inactive) in the experiment with UACC-62.

`COC(=O)Cc1ccc(Oc2nc3ccccc3nc2-c2cccs2)cc1`: the GI50 in the experiment on 786-0 is 40.7 µM (inactive); in the experiment with CAKI-1, > 100 µM (inactive); in the experiment with CCRF-CEM, > 100 µM (inactive); with HL-60, > 100 µM (inactive); with Hs-578T it was 39.8 µM (inactive); with M14, > 100 µM (inactive). For the same compound, the GI50 with MCF7 is > 100 µM (inactive); with MDA-MB-231, 27.2 µM (inactive); with RPMI-8226 it was > 100 µM (inactive); in the experiment on SF-268, 36 µM (inactive); with SF-295, 30.8 µM (inactive); in the experiment on SK-MEL-28, > 100 µM (inactive). For the same compound, the GI50 in the experiment on SK-OV-3 was 24.8 µM (inactive); in the experiment on SN12C, > 100 µM (inactive); with SW-620, > 100 µM (inactive); in the experiment with TK-10, 95.9 µM (inactive); with U-251 it was 39.1 µM (inactive); with UACC-257 it was > 100 µM (inactive). In addition, the GI50 in the experiment with UACC-62 was > 100 µM (inactive).

As to `CCN1CCC(O)(/C=C/c2ccc(OC)cc2)C(C(=O)/C=C/c2ccc(OC)cc2)C1` (stereo not given), the GI50 in the experiment on 786-0 was 4.03 µM (inactive); with CCRF-CEM, 1.34 µM (inactive); in the experiment on HL-60, 3.15 µM (inactive); in the experiment with M14, 15.5 µM (inactive); in the experiment on MCF7, 3.08 µM (inactive); in the experiment with MDA-MB-231 it was 5.02 µM (inactive). The GI50 is 7.5 µM (inactive) with MDA-N; 2.26 µM (inactive) in the experiment on RPMI-8226; 13.8 µM (inactive) with SF-268; 11.8 µM (inactive) in the experiment on SF-295; 12 µM (inactive) in the experiment with SK-MEL-28; 10.6 µM (inactive) in the experiment with SK-OV-3. For the same compound, the GI50 in the experiment on SN12C is 14.8 µM (inactive); in the experiment with SW-620, 4.53 µM (inactive); with TK-10 it was 13.8 µM (inactive); with U-251 it was 6.34 µM (inactive); in the experiment with UACC-257, 11.1 µM (inactive); in the experiment on UACC-62, 12 µM (inactive).

As for `O=c1[nH]c2ccc(C(F)(F)F)cc2nc1Cc1ccccc1`, the GI50 was 35.5 µM (inactive) with 786-0; 49.2 µM (inactive) in the experiment with CAKI-1; 29.4 µM (inactive) with CCRF-CEM; 34.8 µM (inactive) in the experiment on HL-60; 22.3 µM (inactive) with Hs-578T; 29.9 µM (inactive) in the experiment on M14. Also, the GI50 was 28.7 µM (inactive) in the experiment with MCF7; 37.8 µM (inactive) in the experiment on MDA-MB-231; 39.2 µM (inactive) with RPMI-8226; 35.2 µM (inactive) in the experiment on SF-268; 33.5 µM (inactive) in the experiment on SF-295; 39.7 µM (inactive) in the experiment on SK-MEL-28. The GI50 in the experiment with SK-OV-3 is 44.9 µM (inactive); with SW-620 it was 39.4 µM (inactive); in the experiment with TK-10, > 100 µM (inactive); in the experiment with U-251 it was 45.7 µM (inactive); in the experiment with UACC-257, 67.1 µM (inactive); with UACC-62, 42.9 µM (inactive).

Regarding `COc1cccc(NCC(=O)Nn2c(-c3ccccc3)nc3ccccc3c2=O)c1`, the GI50 in the experiment on 786-0 was > 100 µM (inactive); with CCRF-CEM it was 82 µM (inactive); in the experiment on HL-60, > 100 µM (inactive); in the experiment on Hs-578T, > 100 µM (inactive); in the experiment with M14, > 100 µM (inactive); in the experiment on MCF7 it was 52.2 µM (inactive). Besides, the GI50 with MDA-MB-231, with RPMI-8226, with SF-268, with SF-295, in the experiment with SK-MEL-28 and with SK-OV-3 was > 100 µM (inactive) each time. Besides, the GI50 is > 100 µM (inactive) in the experiment on SN12C; > 100 µM (inactive) in the experiment on SW-620; > 100 µM (inactive) in the experiment on TK-10; > 100 µM (inactive) with U-251; > 100 µM (inactive) in the experiment on UACC-257; 63.4 µM (inactive) in the experiment on UACC-62.

With `COc1ccc(-c2c(C(C)=O)c(C)n(C3OC(COC(C)=O)C(OC(C)=O)C(OC(C)=O)C3OC(C)=O)c(=S)c2C#N)cc1` (stereo not given), the GI50 is 62.1 µM (inactive) in the experiment on 786-0; 28.9 µM (inactive) in the experiment with CAKI-1; 42.3 µM (inactive) with CCRF-CEM; 63.5 µM (inactive) in the experiment on HL-60; > 100 µM (inactive) in the experiment on M14; > 100 µM (inactive) in the experiment with MCF7. The GI50 was 29.1 µM (inactive) in the experiment with MDA-MB-231; > 100 µM (inactive) with MDA-N; > 100 µM (inactive) in the experiment with SF-268; 69 µM (inactive) in the experiment on SF-295; > 100 µM (inactive) in the experiment on SK-MEL-28; > 100 µM (inactive) in the experiment on SK-OV-3. In addition, the GI50 in the experiment on SN12C is > 100 µM (inactive); in the experiment on SW-620, 72.8 µM (inactive); in the experiment with TK-10, > 100 µM (inactive); in the experiment with U-251 it was > 100 µM (inactive); in the experiment on UACC-257 it was > 100 µM (inactive); with UACC-62 it was 36.6 µM (inactive).

For `CSc1ncnc2c1ncn2CCC(=O)OC(C)(C)C`, the GI50 in the experiment on 786-0, with CAKI-1, in the experiment on CCRF-CEM, in the experiment on HL-60, in the experiment on M14 and with MCF7 was > 100 µM (inactive) throughout. The GI50 in the experiment on MDA-MB-231, in the experiment with MDA-N, with RPMI-8226, in the experiment with SF-268, in the experiment with SF-295 and with SK-MEL-28 was > 100 µM (inactive) in each case. The GI50 in the experiment on SK-OV-3, with SN12C, with SW-620, in the experiment on TK-10 and with UACC-257 was > 100 µM (inactive) each time.

Turning to `COc1cc([C@@H]2c3cc4c(cc3[C@@H](Nc3ccc(/N=C\c5ccc(C(=O)O[C@@H](C(=O)O[C@H]6C[C@@]7(O)[C@@H](OC(=O)c8ccccc8)[C@@H]8[C@]9(OC(C)=O)CO[C@@H]9C[C@H](O)[C@@]8(C)C(=O)[C@H](OC(C)=O)C(=C6C)C7(C)C)[C@@H](NC(=O)c6ccccc6)c6ccccc6)cc5)cc3)[C@H]3COC(=O)[C@H]23)OCO4)cc(OC)c1O`, the GI50 with 786-0 was 2.63 µM (inactive); in the experiment on CAKI-1 it was 0.916 µM (active); with CCRF-CEM, 0.544 µM (active); in the experiment on HL-60, 0.697 µM (active); in the experiment with M14, 5.48 µM (inactive); with MCF7 it was 0.384 µM (active). Further, the GI50 in the experiment on MDA-MB-231 was 20.7 µM (inactive); with MDA-N, 9.33 µM (inactive); in the experiment with RPMI-8226, 2.59 µM (inactive); in the experiment on SF-268, 4.34 µM (inactive); with SF-295, 1.99 µM (inactive); with SK-MEL-28 it was > 38.8 µM (inactive). Besides, the GI50 in the experiment on SK-OV-3 was 2.78 µM (inactive); in the experiment on SN12C, 2.88 µM (inactive); with SW-620, 8.73 µM (inactive); in the experiment on TK-10, 10.4 µM (inactive); in the experiment on U-251, 3.34 µM (inactive); with UACC-257, 28.6 µM (inactive). The GI50 with UACC-62 was 4.26 µM (inactive).
